Read-outs that look alike come from different tables or passages of the source.
Target: T1, human M2 receptor (Homo sapiens, UniProt P08172)
T1 sequence (P08172 1-466): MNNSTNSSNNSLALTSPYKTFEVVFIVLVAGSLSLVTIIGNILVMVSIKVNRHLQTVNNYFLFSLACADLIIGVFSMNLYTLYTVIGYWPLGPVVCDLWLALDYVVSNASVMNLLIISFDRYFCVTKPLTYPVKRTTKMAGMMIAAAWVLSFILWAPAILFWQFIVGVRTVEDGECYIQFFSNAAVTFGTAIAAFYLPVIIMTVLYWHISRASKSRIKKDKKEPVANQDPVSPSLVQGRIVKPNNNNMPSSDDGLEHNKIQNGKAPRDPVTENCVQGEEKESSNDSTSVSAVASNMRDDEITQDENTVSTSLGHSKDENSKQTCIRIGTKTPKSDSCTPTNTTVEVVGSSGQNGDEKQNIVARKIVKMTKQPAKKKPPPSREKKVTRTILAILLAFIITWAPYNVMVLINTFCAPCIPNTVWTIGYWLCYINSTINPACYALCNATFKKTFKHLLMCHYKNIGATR
Details: M2-GIRK1/4 reporter cells; for EC50: in some cases mean of two or more determinations; for Emax: read-out: Efficiency, boosting of the acetylcholine effect at EC20 acetylcholine concentration

[1] = Receptor activity EC50, allosteric potency at EC20 acetylcholine

EC50 [1] [nM]	Emax [%]	Efficiency (boosting of the acetylcholine effect at EC20 acetylcholine concentration) [%]	EC50 (read-out: Receptor activity EC50, allosteric potency at EC20 acetylcholine) [nM]	Compound
7	100	–	–	CC(C)(CC(F)(F)F)NC(=O)c1cn(-c2c(F)cc(F)cc2Cl)c2nc(N3C[C@@H](O)CC3=O)ccc2c1=O [Example 395, 1-(2-Chloro-4,6-difluorophenyl)-7-[(4S)-4-hydroxy-2-oxopyrrolidin-1-yl]-4-oxo-N-(4,4,4-trifluoro-2-methylbutan-2-yl)-1,4-dihydro-1,8-naphthyridine-3-carboxamide]
32	90	–	–	O=C(NC12CC(F)(C1)C2)c1cn(-c2c(F)cc(F)cc2Cl)c2nc(N3C[C@@H](O)CC3=O)ccc2c1=O [Example 397, 1-(2-Chloro-4,6-difluorophenyl)-N-(3-fluorobicyclo[1.1.1]pent-1-yl)-7-[(4S)-4-hydroxy-2-oxopyrrolidin-1-yl]-4-oxo-1,4-dihydro-1,8-naphthyridine-3-carboxamide]
41	95.5	–	–	O=C(NC12CC(F)(C1)C2)c1cn(-c2c(F)cc(F)cc2Cl)c2nc(N3C[C@@H](O)[C@H](O)C3)ccc2c1=O [Example 401, 1-(2-Chloro-4,6-difluorophenyl)-7-[(3R,4R)-3,4-dihydroxypyrrolidin-1-yl]-N-(3-fluorobicyclo[1.1.1]pent-1-yl)-4-oxo-1,4-dihydro-1,8-naphthyridine-3-carboxamide]
32	100	–	–	CC(C)(NC(=O)c1cn(-c2c(F)cc(F)cc2F)c2nc(N3C[C@@H](O)[C@H](O)C3)ccc2c1=O)C(F)(F)F [Example 403]
8	95.5	–	–	O=C(N[C@H](C1CC1)C(F)(F)F)c1cn(-c2c(F)cc(F)cc2F)c2nc(N3CC4CC4(O)C3)ccc2c1=O (stereo partly drawn) [Example 405, N-[(1R)-1-Cyclopropyl-2,2,2-trifluoroethyl]-7-[1-hydroxy-3-azabicyclo[3.1.0]hex-3-yl]-4-oxo-1-(2,4,6-trifluorophenyl)-1,4-dihydro-1,8-naphthyridine-3-carboxamide]
9	88	–	–	CC[C@@H](NC(=O)c1cn(-c2c(F)cc(F)cc2Cl)c2nc(N3CC4CC4(O)C3)ccc2c1=O)C(F)(F)F (stereo partly drawn) [Example 406, 1-(2-Chloro-4,6-difluorophenyl)-7-[1-hydroxy-3-azabicyclo[3.1.0]hex-3-yl]-4-oxo-N-[(2R)-1,1,1-trifluorobutan-2-yl]-1,4-dihydro-1,8-naphthyridine-3-carboxamide]
9	94	–	–	C[C@H](NC(=O)c1cn(-c2c(F)cc(F)cc2Cl)c2nc(N3CC4CC4(O)C3)ccc2c1=O)C(F)(F)F (stereo partly drawn) [Example 408, 1-(2-Chloro-4,6-difluorophenyl)-7-[1-hydroxy-3-azabicyclo[3.1.0]hex-3-yl]-4-oxo-N-[(2S)-1,1,1-trifluoropropan-2-yl]-1,4-dihydro-1,8-naphthyridine-3-carboxamide]
46	91.5	–	–	C[C@H](NC(=O)c1cn(-c2c(F)cc(F)cc2Cl)c2nc(N3CCNC3=O)ccc2c1=O)C(F)(F)F [Example 419, 1-(2-Chloro-4,6-difluorophenyl)-4-oxo-7-(2-oxoimidazolidin-1-yl)-N-[(2S)-1-1,1,1-trifluoropropan-2-yl]-1,4-dihydro-1,8-naphthyridine-3-carboxamide]
48	100	–	–	C[C@@H](COC(F)(F)F)NC(=O)c1cn(-c2c(F)cc(F)cc2Cl)c2nc(N3C[C@@H](O)CC3=O)ccc2c1=O [Example 421, 1-(2-Chloro-4,6-difluorophenyl)-7-[(4S)-4-hydroxy-2-oxopyrrolidin-1-yl]-4-oxo-N-[(2S)-1-(trifluoromethoxy)propan-2-yl]-1,4-dihydro-1,8-naphthyridine-3-carboxamide]
61	90	–	–	CC[C@H](NC(=O)c1cn(-c2c(F)cc(F)cc2Cl)c2nc(N3C(=O)CC[C@@H]3CO)ccc2c1=O)C(F)(F)F [Example 430, 1-(2-Chloro-4,6-difluorophenyl)-7-[(2R)-2-(hydroxymethyl)-5-oxopyrrolidin-1-yl]-4-oxo-N-[(2)-1,1,1-trifluorobutan-2-yl]-1,4-dihydro-1,8-naphthyridine-3-carboxamide]
92	98	–	–	CC[C@@H](NC(=O)c1cn(-c2ccc(F)cc2F)c2nc(N3CCC(C)C3=O)ccc2c1=O)C(F)(F)F (stereo partly drawn) [Example 431, 1-(2,4-Difluorophenyl)-7-[3-methyl-2-oxopyrrolidin-1-yl]-4-oxo-N-[(2R)-1,1,1-trifluorobutan-2-yl]-1,4-dihydro-1,8-naphthyridine-3-carboxamide]
61	92	–	–	CC[C@@H](NC(=O)c1cn(-c2ccc(F)cc2F)c2nc(N3C(=O)NCC3C)ccc2c1=O)C(F)(F)F (stereo partly drawn) [Example 434, 1-(2,4-Difluorophenyl)-7-[5-methyl-2-oxoimidazolidin-1-yl]-4-oxo-N-[(2R)-1,1,1-trifluorobutan-2-yl]-1,4-dihydro-1,8-naphthyridine-3-carboxamide]
84	100	–	–	O=C(N[C@H](C(F)F)C1CC1)c1cn(-c2c(F)cc(F)cc2F)c2nc(N3C[C@@H](O)CC3=O)ccc2c1=O [Example 435, N-[(1 S)-1-Cyclopropyl-2,2-difluoroethyl]-7-[(4S)-4-hydroxy-2-oxopyrrolidin-1-yl]-4-oxo-1-(2,4,6-trifluorophenyl)-1,4-dihydro-1,8-naphthyridine-3-carboxamide]
–	–	100.0	9	CC(NC(=O)c1cn(-c2c(F)cc(F)cc2F)c2nc(N3C[C@@H](O)[C@H](O)C3)ccc2c1=O)(C1CC1)C(F)(F)F (stereo partly drawn) [Example 443, N-[2-Cyclopropyl-1,1-trifluoropropan-2-yl]-7-[(3R,4R)-3,4-dihydroxypyrrolidin-1-yl]-4-oxo-1-(2,4,6-trifluorophenyl)-1,4-dihydro-1,8-naphthyridine-3-carboxamide]
51	100	–	–	C[C@@H]1CN(c2ccc3c(=O)c(C(=O)N[C@@H](C4CC4)C(F)(F)F)cn(-c4c(F)cc(F)cc4F)c3n2)C(=O)O1 [Example 444, N-[(1S)-1-Cyclopropyl-2,2,2-trifluoroethyl]-7-[(5R)-5-methyl-2-oxo-1,3-oxazolidin-3-yl]-4-oxo-1-(2,4,6-trifluorophenyl)-1,4-dihydro-1,8-naphthyridine-3-carboxamide]
19	78.5	–	–	O=C(N[C@@H](C1CC1)C(F)(F)F)c1cn(-c2c(F)cc(F)cc2F)c2nc(N3CC4(CC4)NC3=O)ccc2c1=O [Example 450, N-[(1 S)-1-Cyclopropyl-2,2,2-trifluoroethyl]-4-oxo-7-(5-oxo-4,6-diazaspiro[2.4]hept-6-yl)-1-(2,4,6-trifluorophenyl)-1,4-dihydro-1,8-naphthyridine-3-carboxamide]
39	89	–	–	O=C(N[C@@H](C1CC1)C(F)(F)F)c1cn(-c2c(F)cc(F)cc2F)c2nc(N3CCC(F)(CO)CC3)ccc2c1=O [Example 461, N-[(1 S)-1-Cyclopropyl-2,2,2-trifluoroethyl]-7-[4-fluoro-4-(hydroxymethyl)piperidin-1-yl]-4-oxo-1-(2,4,6-trifluorophenyl)-1,4-dihydro-1,8-naphthyridine-3-carboxamide]
26	100	–	–	O=C(N[C@@H](C1CC1)C(F)(F)F)c1cn(-c2c(F)cc(F)cc2F)c2nc(N3CC[C@@H](O)C3=O)ccc2c1=O [Example 466, N-[(1 S)-1-Cyclopropyl-2,2,2-trifluoroethyl]-7-[(3R)-3-hydroxy-2-oxopyrrolidin-1-yl]-4-oxo-1-(2,4,6-trifluorophenyl)-1,4-dihydro-1,8-naphthyridine-3-carboxamide]

Source: patent US20190367516A1 (Bayer Pharma Aktiengesellschaft, priority 2015, published 2019)
